# In US20250387360A1, “Methods and Compositions for Treatment of Addiction” (University of Connecticut, priority 2024, published 2025):
# “Also recorded” adds a separate entry of the source.
# How the values were obtained:
# male mice = experiment: Dosage dependent, short-term sodium valerate in 4-day DID regimen; assay type: in vivo, mouse; conditions: day 1 to day 4, n=7/group, vs vehicle
# Experimental: Different dosages of sodium valerate ranging from 20 mM to 200 mM were tested in male mice (n=7/group, 6-8 weeks old) using a 4-day DID regimen. Different dosages of sodium valerate were given through drinking water 30 min before the 2-hour drinking exposure at Day 1 and continued to day 4 except the drinking hours.
# A standard 4-day drinking in the dark (DID) model was used to evaluate binge-like ethanol drinking patterns in mice. A 20% v/v ethanol solution was prepared by diluting 190-proof ethyl alcohol (Sigma, MO, U.S.A) with deionized water. During days 1-3, the water bottles were temporarily removed during the dark cycle of the mice, and the mice were provided with a tube containing the 20% v/v ethanol solution for a duration of two hours. On day four, the assessment of binge-like ethanol consumption took place, where the mice were given access to the 20% v/v ethanol solution for a period of four hours. The volume of fluid in the tube (read to the closest 100 μL) was measured immediately upon placement, and at two hours and four hours into the test. Following the completion of the four hours test, approximately 100 μL of blood was collected through cardiac puncture after CO2 euthanasia. Blood samples were subjected to centrifugation at 10,000 rpm for 10 minutes. […] The quantity of ethanol consumed was then calculated as grams per kilogram of the mouse's body weight. […]
# [1] = tested on: gene expression in the amygdala; experiment: Bulk RNA-seq of amygdala (DESeq2, IPA); assay type: in vivo, mouse
# Experimental: Total RNA was isolated from amygdala samples using the Direct-zol RNA Microprep Kit (Zymoresearch, CA, U.S.A). Quantification of total RNA and assessment of its purity ratios were performed using the NanoDrop 2000 spectrophotometer (Thermo Fisher Scientific, MA, U.S.A, RRID:SCR_018042).
# Total RNA libraries were prepared for transcriptome sequencing using the Zymo-Seq RiboFree Stranded Total RNA library preparation kit (Zymo Research, CA, U.S.A) following the manufacturer's instructions. Further, rRNAs were depleted as part of the sample preparation process. Libraries were validated for length and adapter dimer removal using the Agilent TapeStation 4200 D1000 High Sensitivity assay (Agilent Technologies, CA, U.S.A, RRID:SCR_019398). Subsequent quantification and normalization were carried out using the dsDNA High Sensitivity Assay for Qubit 3.0 (Life Technologies, CA, U.S.A, RRID:SCR_020311). Sample libraries were then prepared for Illumina sequencing following the manufacturer's protocol (Illumina, CA, U.S.A). All the individual samples were consolidated into a single sequencing pool, with proportions targeting 30M reads/sample, and sequenced on the Illumina NovaSeq 6000 platform (Illumina, CA, U.S.A, RRID:SCR_016387).
# Raw reads were subjected to adaptor removal and quality control including filtering of low-quality reads. Filtered reads were mapped to the mouse reference genome using STAR (Spliced Transcripts Alignment to a Reference, RRID:SCR_004463). Gene expression level was estimated by transcripts per million of transcript sequences. Principal component analysis (PCA) was performed to visualize overall gene expression differences between compared groups in several major principal components. The analysis of differential gene expression (DEG) was performed using the DESeq2 (RRID:SCR_015687) package for RNA-Seq data. […] The Benjamini-Hochberg procedure, also referred to as the false discovery rate (FDR) method, was applied to correct p-values for multiple testing. We utilized Ingenuity Pathway Analysis (IPA, RRID:SCR_008653) to predict pathways associated with differentially expressed genes and employed Gene Set Enrichment Analysis (GSEA, RRID:SCR_003199) to visualize the outcomes in a heatmap. Right tailed Fisher's exact test was performed in the IPA for identifying significant canonical pathways.
# To gain a molecular understanding of the effects of sodium valerate supplementation on brain function, bulk RNA sequencing (RNA-seq) analysis was performed on amygdala tissue of mice that underwent the DID paradigm after sodium valerate or NaCl (n=7 mice/group) supplementation. […] DESeq2 identified a total of 301 DEG at the adjusted p value <0.25, 126 genes at the adjusted p value <0.10, and 75 genes at the adjusted p value <0.05. […] Among these genes, the top five protein coding genes with the highest expression in sodium valerate-supplemented mice are Kcna10 (potassium voltage-gated channel, shaker-related subfamily, member 10), Pln (phospholamban), H60C (histocompatibility antigen 60c), Idi1 (isopentenyl-diphosphate delta isomerase, pseudogene 3) and Snord34 (small nucleolar RNA, C/D box 34). […] PTGS2 is a prostanoids producer that responds to inflammation. Its downregulation in the sodium valerate supplemented group (log2Fold change: −0.65; adjusted p=0.0002) indicates an anti-inflammatory effect of valerate. […] As SCFAs may function in the brain through G protein-coupled receptors (GPCRs), gene expression levels of 85 GPRs were examined in the RNAseq data. […] IPA was performed to identify changes to the molecular signaling pathways and to comparatively assess the sodium valerate effects in the amygdala. […]
smiles,measurement,setting,value
CCCCC(=O)[O-].[Na+] [sodium valerate],"alcohol intake, 100 mM",male mice; 100 mM in drinking water 30 min before alcohol exposure,significantly decreased; also recorded: reduce drinking significantly
same,"alcohol intake, 200 mM",male mice; 200 mM in drinking water 30 min before alcohol exposure,significantly decreased; also recorded: reduce drinking significantly
same,MAPKs at the RNA level,[1],downregulated
same,six mitochondrial genes encoding subunits of NADH dehydrogenase (Complex I),[1],consistently upregulated
same,downregulated genes among the 75 significant DEG,[1]; adjusted p <0.05,28
same,upregulated genes among the 75 significant DEG,[1]; adjusted p <0.05,47
same,"PTGS2 expression, log2Fold change",[1]; adjusted p=0.0002,−0.65
same,"GPR158 expression, log2Fold change",[1]; unadjusted p<0.01,−0.26
same,"Gpr56 expression, log2Fold change",[1]; unadjusted p<0.01,0.28
